Test results from patent US20230414565A1, “COMPOSITIONS AND METHODS FOR TREATING HEMATOLOGICAL MALIGNANCIES” (Magenta Therapeutics, Inc., priority 2022, published 2023).
Like-named read-outs stand apart in the source and are kept apart here. Blank lines part the entries; values can stand above or below the molecule they belong to.

Key:
[1] = system: graft cell subsets (T cells, B cells, NK cells, TNC); conditions: cited from earlier work
CD34+ cells [2] = test: Phase 1 clinical trial: mobilization of CD34+ cells into peripheral blood, multicolor flow cytometry
CD34+CD90+CD45RA− cells [3] = test: Phase 1 clinical trial: mobilization of CD34+CD90+CD45RA− cells into peripheral blood, multicolor flow cytometry
Protocol: (§1) The dose of MGTA-145 was one of 0.0075 mg/kg, 0.015 mg/kg, 0.03 mg/kg, 0.075 mg/kg, 0.15 mg/kg, or 0.3 mg/kg. […] The dose of MGTA-145 was one of 0.015 mg/kg, 0.03 mg/kg, 0.075 mg/kg, or 0.15 mg/kg. […] The dose of MGTA-145 was one of 0.03 mg/kg or 0.075 mg/kg.
(§2) Mobilization of white blood cells (WBCs), neutrophils, lymphocytes, basophils, and eosinophils was quantified by automated hematology analyzer.

CD34+ cells [4] = conditions: historical plerixafor alone data, Devine et al., Blood 2008; cited from earlier work
[5] = system: hematopoietic stem and progenitor cell mobilization; conditions: U.S. Pat. Nos. 6,080,398 and 6,447,766; cited from earlier work
CD45.2 mice = test: Primary and secondary transplantation of mobilized mouse cells at limit dilution (CRU); format: in vivo; conditions: FIG. 25, right panel; versus the other cohorts
Description: Mice (CD45.1) were mobilized according to the scheme shown in FIG. 24 and mobilized cells transplanted into CD45.2 mice at limit dilution.

[6] = Phase 1 clinical trial: treatment emergent adverse events; conditions: Part A; MGTA-145 0.0075-0.3 mg/kg, n = 24
MMP-9 = test: Phase 1 clinical trial: plasma MMP-9 and TIMP-1, sandwich immunoassay; format: in vivo, human; conditions: MGTA-145 monotherapy, all six doses
Protocol: (§3) Additionally, blood samples were analyzed by multicolor flow cytometry to quantify changes in expression of neutrophil activation markers such as L-selectin, CD11b, CD18, and CD66. Additionally, matrix metalloproteinase 9 (MMP-9), a neutrophil protease believed to mediate mobilization in response to MGTA-145, as well as its cognate inhibitor, TIMP-1, were quantified in plasma samples collected at the same time points by sandwich immunoassay.

CD34+ cells [7] = test: Phase 1 Part D: apheresis collection yield of CD34+ cells
Protocol: as §1
(§4) The table documents the body weight of each subject, the total CD34+ cells that were obtained through the apheresis procedure, the normalized CD34+ cells/kg of body weight, and the percentage of CD34+ cells that were CD90+CD45RA−.

white blood cells (WBCs) = test: Phase 1 clinical trial: mobilization of white blood cells, automated hematology analyzer; conditions: MGTA-145 monotherapy
Protocol: as §1, §2

neutrophils = test: Phase 1 clinical trial: mobilization of neutrophils, automated hematology analyzer; conditions: MGTA-145 monotherapy
Protocol: as §1, §2

CXCR2 = biological target: T1, CXCR2 (Homo sapiens, UniProt P25025); test: Phase 1 clinical trial: CXCR2 expression on peripheral blood neutrophils; format: in vivo
T1 construct: endogenous in cells; host or cells: peripheral blood neutrophils of trial subjects
T1 sequence (P25025 1-360): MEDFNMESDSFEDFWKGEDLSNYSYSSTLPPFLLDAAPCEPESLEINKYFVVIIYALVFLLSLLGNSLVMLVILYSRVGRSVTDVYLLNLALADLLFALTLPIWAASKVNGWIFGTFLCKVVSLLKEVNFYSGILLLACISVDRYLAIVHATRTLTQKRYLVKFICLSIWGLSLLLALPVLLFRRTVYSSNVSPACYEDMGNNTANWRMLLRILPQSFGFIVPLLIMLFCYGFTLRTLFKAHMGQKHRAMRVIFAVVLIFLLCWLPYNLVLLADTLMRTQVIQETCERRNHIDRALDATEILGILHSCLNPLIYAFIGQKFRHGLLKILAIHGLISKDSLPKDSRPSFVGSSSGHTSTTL

CD34+CD90+CD45RA− cells [8] = test: Phase 1 Part D: apheresis collection of CD34+CD90+CD45RA− cells; conditions: for CD90+/kg (CD34+CD90+CD45RA− cells), mean / CD90+/kg (CD34+CD90+CD45RA− cells), median: 2 h stagger after plerixafor; for CD90+ (% of CD34+): 2 h stagger after plerixafor (Table 13)
Protocol: as §1, §4

[9] = system: neutrophil activation markers (L-selectin, CD11b, CD18, CD66); test: Phase 1 clinical trial: neutrophil activation markers, multicolor flow cytometry; format: in vivo, human; conditions: MGTA-145 monotherapy
Protocol: as §3

[10] = system: neutrophil activation markers (L-selectin, CD11b, CD18, CD66); conditions: 5 days of G-CSF; Falanga et al., Blood 1999; cited from earlier work
[11] = G-CSF; Pulsiper et al. (2009) Blood; cited from earlier work
[12] = Chen et al., 2019, 2 LP for plerixafor (N = 50+), 1 LP for G-CSF (N = 112+)
[13] = Devine et al, 2008, yield of 1 LP, plerixafor N = 24, G-CSF N = 8
[14] = Part B, pooled placebo + plerixafor on Day 1
[15] = Part C, pooled placebo + plerixafor on Day 1
[16] = Pooled B + C, pooled placebo + plerixafor on Day 1
[17] = plerixafor alone, MGTA-145 dose 0
[18] = MGTA-145 monotherapy 0.03 mg/kg
[19] = MGTA-145 monotherapy, the other doses
[20] = Part A, MGTA-145 on Day 1, 0.03 mg/kg
[21] = Part A, MGTA-145 on Day 1, 0.3 mg/kg
[22] = 0.03 mg/kg MGTA-145 and plerixafor (staggered 2 hour)
[23] = higher doses (0.075, 0.15, 0.3 mg/kg), 2 hours post administration
[24] = lower doses (0.0075, 0.015, 0.03 mg/kg), between 1 and 2 hours post administration
[25] = G-CSF, N = 78 healthy donors, Chaidos et al, Blood 2012

Molecule: c1cc(CN2CCCNCCNCCCNCC2)ccc1CN1CCCNCCNCCCNCC1 [plerixafor, 1,1′-[1,4-phenylenebis(methylene)]-bis-1,4,8,11-tetra-azacyclotetradecane]
Graft CD3+, median [1, 12]: 6e+08 kg⁻¹
Graft CD4+, median [1, 12]: 3.6e+08 kg⁻¹
Graft CD8+, median [1, 12]: 2.2e+08 kg⁻¹
Graft CD19+, median [1, 12]: 1.5e+08 kg⁻¹
Graft CD34+, median [1, 12]: 4.7e+06 kg⁻¹
Graft CD56+, median [1, 12]: 4e+07 kg⁻¹
Graft CD3+, median [1, 13]: 4.6e+08 kg⁻¹
Graft CD4+, median [1, 13]: 3.2e+08 kg⁻¹
Graft CD8+, median [1, 13]: 1.3e+08 kg⁻¹
Graft CD34+, median [1, 13]: 2.9e+06 kg⁻¹
Graft CD56+, median [1, 13]: 3e+07 kg⁻¹
Graft CD19+, median ([1]; Devine et al, 2008, yield of 1 LP, plerixafor N = 24): 1e+08 kg⁻¹
Peak CD34+ (#/μL) Median (CD34+ cells [2]; Part B, plerixafor alone, MGTA-145 dose 0): 26 #/μL
Peak CD34+ (#/μL) Median (CD34+ cells [2]; [14]): 26 #/μL
Percent ≥20/μL peak CD34+ (CD34+ cells [2]; [14]): 64%
Peak CD34+ (#/μL) Median (CD34+ cells [2]; Part C first day, plerixafor alone, MGTA-145 dose 0): 18 #/μL
Peak CD34+ (#/μL) Median (CD34+ cells [2]; [15]): 18 #/μL
Percent ≥20/μL peak CD34+ (CD34+ cells [2]; [15]): 0%
Percent ≥20/μL peak CD34+ (CD34+ cells [2]; Part C, pooled placebo + plerixafor on Day 2): 50%
Peak CD34+ (#/μL) Median (CD34+ cells [2]; Pooled B + C, plerixafor alone, MGTA-145 dose 0): 20 #/μL
Peak CD34+ (#/μL) Median (CD34+ cells [2]; [16]): 23 #/μL
Percent ≥20/μL peak CD34+ (CD34+ cells [2]; [16]): 56%
Tmax (time of the peak CD34+ level) Median (CD34+ cells [2]; plerixafor alone): 8 h
Peak CD34+/μL (FC vs. baseline) Median (CD34+ cells [2]; [17]): 15
Peak CD34+/μL Median (CD34+ cells [2]; [17]): 20 µL⁻¹
Peak CD34+CD90+CD45RA− mobilization (median) (CD34+CD90+CD45RA− cells [3]; plerixafor alone): 8 cells/μL
Patients with peak CD34+ ≥20 cells/μL (CD34+ cells [4]): 28%
Patients with peak CD34+ ≥40 cells/μL (CD34+ cells [4]): 4%

Molecule: Gro-β T N65D: Gro-β T variant with aspartic acid in place of asparagine at position 65
Potency of hematopoietic stem and progenitor cell mobilization [5]: potency that is substantially greater than that of Gro-β T

CXCR2 expression recovery prior to the second dose (CXCR2; MGTA-145 0.07 mg/kg, staggered dosing, two consecutive days): ~80 % of baseline
Molecule: MGTA-145: CXCR2 agonist; truncated Gro-β with deletion of the first four N-terminal amino acids (SEQ ID NO: 2)
Engraftment rates, secondary transplantation (CD45.2 mice): vastly improved engraftment rates
Potency of hematopoietic stem and progenitor cell mobilization [5]: potency superior to that of Gro-β by multiple orders of magnitude
Back pain/Musculoskeletal pain [6]: 19 n (%)
Subjects with any drug related TEAE [6]: 19 n (%)
Fold increase of CD34+ cells (CD34+ cells [2]; [18]): 7 fold
Peak concentration of CD34+ cells (CD34+ cells [2]; [18]): ~10 cells/μL
Time of peak CD34+ mobilization post administration (CD34+ cells [2]; MGTA-145 monotherapy, single dose, across the six doses 0.0075-0.3 mg/kg): about 30 minutes
Fold increase of CD34+ cells (CD34+ cells [2]; [19]): 2-3 fold
Peak concentration of CD34+ cells (CD34+ cells [2]; MGTA-145 monotherapy, the other doses (0.0075, 0.015, 0.075, 0.15, 0.3 mg/kg)): ~5 cells/μL
Peak CD34+ (#/μL) Median (CD34+ cells [2]; [20]): 12 #/μL
Percent ≥20/μL peak CD34+ (CD34+ cells [2]; [20]): 0%
Peak CD34+ (#/μL) Median (CD34+ cells [2]; [21]): 3 #/μL
Percent ≥20/μL peak CD34+ (CD34+ cells [2]; [21]): 0%
Molar ratio MMP-9:TIMP-1 (MMP-9): rapid increase 30 minutes post-administration
Plasma levels of MMP-9 (MMP-9): increased sharply within 30 minutes post-administration
Fold increase of CD34+CD90+CD45RA− cells (CD34+CD90+CD45RA− cells [3]; [18]): ~8.3 fold
Peak concentration of CD34+CD90+CD45RA− cells (CD34+CD90+CD45RA− cells [3]; [18]): ~3 cells/μL
Time of peak CD34+CD90+CD45RA− mobilization post administration (CD34+CD90+CD45RA− cells [3]; MGTA-145 monotherapy, six doses): 30 min
Fold increase of CD34+CD90+CD45RA− cells (CD34+CD90+CD45RA− cells [3]; [19]): 2-3.5 fold
Peak concentration of CD34+CD90+CD45RA− cells (CD34+CD90+CD45RA− cells [3]; [19]): 1-1.6 cells/μL
CD34+/kg, median (CD34+ cells [7]; [22]): 4.3 ×10^6 cells
Total CD34+ Yield, median (CD34+ cells [7]; [22]): 321 (239-500) ×10^6 cells
CD34+/kg, mean (CD34+ cells [7]; MGTA-145 0.03 mg/kg, 2 h stagger after plerixafor): 4.1 ×10^6
Initial plateau of WBC mobilization (white blood cells (WBCs); [23]): 6-10 ×10^3 cells/μL
Peak mobilization of WBCs (white blood cells (WBCs); [24]): 15-17 ×10^3 cells/μL
Initial plateau of neutrophil mobilization (neutrophils; [23]): 5-8 ×10^3 cells/μL
Peak mobilization of neutrophils (neutrophils; [24]): 13-15 ×10^3 cells/μL
CXCR2 on peripheral neutrophils (CXCR2; MGTA-145 monotherapy): rapid downregulation of its target receptor, CXCR2, on peripheral neutrophils, followed by recovery over 24 hours
CD90+/kg (CD34+CD90+CD45RA− cells), mean (CD34+CD90+CD45RA− cells [8]; MGTA-145 0.03 mg/kg): 1.3 ×10^6
CD90+/kg (CD34+CD90+CD45RA− cells), median (CD34+CD90+CD45RA− cells [8]; MGTA-145 0.03 mg/kg): 1.5 ×10^6
CD90+ (% of CD34+) (CD34+CD90+CD45RA− cells [8]; MGTA-145 0.03 mg/kg, 0.03 mg/kg): 31%
CD90+/kg (CD34+CD90+CD45RA− cells), mean (CD34+CD90+CD45RA− cells [8]; MGTA-145 […]): 1.4 ×10^6
CD90+/kg (CD34+CD90+CD45RA− cells), median (CD34+CD90+CD45RA− cells [8]; MGTA-145 […]): 1.2 ×10^6
CD90+ (% of CD34+) (CD34+CD90+CD45RA− cells [8]; MGTA-145 […], […]): 37%
Change relative to baseline of neutrophil activation marker CD66 ([9]; all doses except the highest (0.3 mg/kg)): < 2 fold
Change relative to baseline of neutrophil activation marker L-selectin ([9]; all six doses): < 2 fold
Change relative to baseline of neutrophil activation markers CD11b and CD18 ([9]; all six doses): < 2 fold

B1: G-CSF: standard mobilization agent, five days of Filgrastim (G-CSF) (protein, UniProt P09919 31-207, looked up)
Granulocyte …: TPLGPASSLPQSFLLKCLEQVRKIQGDGAALQEKLVSECATYKLCHPEELVLLGHSLGIPWAPLSSCPSQALQLAGCLSQLHSGLFLYQGLLQALEGISPELGPTLDTLQLDVADFATTIWQQMEELGMAPALQPTQGAMPAFASAFQRRAGGVLVASHLQSFLEVSYRVLRHLAQP
modifications: filgrastim
Graft CD3+, median [1, 12]: 2.5e+08 kg⁻¹
Graft CD4+, median [1, 12]: 1.5e+08 kg⁻¹
Graft CD8+, median [1, 12]: 7e+07 kg⁻¹
Graft CD19+, median [1, 12]: 5e+07 kg⁻¹
Graft CD34+, median [1, 12]: 4.2e+06 kg⁻¹
Graft CD56+, median [1, 12]: 1e+07 kg⁻¹
Graft CD3+, median [1, 13]: 1.3e+08 kg⁻¹
Graft CD4+, median [1, 13]: 1.1e+08 kg⁻¹
Graft CD8+, median [1, 13]: 4e+07 kg⁻¹
Graft CD34+, median [1, 13]: 4.2e+06 kg⁻¹
Graft CD56+, median [1, 13]: 2e+07 kg⁻¹
TNC/kg donor weight, median (range) ([1]; G-CSF, N = 40 healthy donors, Singhal et al, BMT 2000): 7.2 (3.2-14.0) ×10^8 cells
Frequency of CD3+ T cells in graft, median [1, 25]: 45.3 % of CD45+
Frequency of CD4+ T cells in graft, median [1, 25]: 29.8 % of CD45+
Frequency of CD8+ T cells in graft, median [1, 25]: 11.8 % of CD45+
Frequency of CD19+ B cells in graft, median [1, 25]: 10.5 % of CD45+
Frequency of CD56+ NK cells in graft, median [1, 25]: 3.2 % of CD45+
Frequency of Tregs in graft, median [1, 25]: 3.5 % of CD4+ T cells
Frequency of iNKT cells in graft, median [1, 25]: 0.04 % of CD3+
Increase in neutrophil activation markers [10]: ~2.7 fold
Tolerability [11]: Majority with bone pain,
